Assay results from patent publication US8859508B2, “Application of 5-methyl-1,3-benzenediol or derivatives thereof in the preparation of medicines and functional foods for treatment or prevention of depression” (Kunming Institute of Botany, Chinese Academy of Sciences, priority 2007, dated 2014).

How the values were obtained:
[1] = tested on: Kunming mice; assay: Elevated plus maze (EPM) test in mice; format: in vivo, mouse; details: positive control, 2 mg/kg
Procedure: (§1) Kunming mice (Certificate Number: A4CXK(Chuan)2003-16) from the Institute of Experimental Animals, People's Hospital of Sichuan Province, were used. They were 3-4 weeks old at the beginning of the experiment and weighed 25-30 g. ORG was prepared as described in Example 1. Animals were divided into drug administration groups with different doses of ORG, a vehicle control group, and a diazepam group (Jinyao Ltd. Co., Batch No. 106k1588) as positive control.
Elevated plus maze (EPM): The EPM had two open and two closed arms of equal size (30 cm long×5 cm wide). The two closed arms were connected by a central 5 cm×5 cm area. The whole maze was elevated to a height of 35 cm. ORG was administered i.p. 24 h and 5 h before the test started. Mice were individually placed in the center of the maze facing a closed arm. Each animal was tested for 5 min in a single session. The number of entrances into open arms, the number of entrances into closed arms, the total time spent in open arms, and the total time spent in closed arms were recorded; a standard of entry was defined as all limbs entering the arm. The number of entrances into open arms and time spent in open arms were the major indexes to evaluate the anxiety level of the animals, for the more entrances or time, the less the anxiety level.
(§2) Data analysis: The results of the test are expressed as mean±SEM. One-way ANOVA was used followed by the LSD test with SPSS 11 software. The significance level was set at P<0.05.

[2] = tested on: serum corticosterone; assay: Serum corticosterone level (radioimmunoassay), non-stressed and elevated platform stressed rats; format: in vivo, rat
[3] = tested on: Kunming mice; assay: Morris water maze (MWM) in mice; format: in vivo, mouse
Procedure: Kunming mice (Certificate Number: A4CXK(Chuan)2003-16) from the Institute of Experimental Animals, People's Hospital of Sichuan Province, were used. They were 3-4 weeks old at the beginning of the experiment and weighed 25-30 g. ORG was prepared as described in Example 1. Animals were divided into drug administration groups with fluoxetine or different doses of ORG and a vehicle control group. The drug administration groups received 1.75 mg/kg or 3.5 mg/kg of ORG or 15 mg/kg of fluoxetine. Animals received a single i.p. injection of drug or vehicle 30 min either after training every day or 30 min before the retention test on day 8.
Morris water maze: The MWM was performed in a circular pool (100 cm in diameter and 36 cm in depth) with a hidden platform (10 cm×10 cm) that was approximately 1 cm below the water surface. The pool was surrounded by yellow curtains with different shaped markers hanging in each quadrant. The time spent to find the hidden platform and the trajectory of the mouse were recorded by computer. From days 1 to 7, mice were placed in the pool to find the fixed hidden platform. On day 8, the platform was removed and the time that the mouse spent in the target quadrant was counted in 1 min of free swimming.
as §2

[4] = tested on: DD model mice; assay: TST in constant darkness (DD) model mice; format: in vivo, mouse; details: DD mice, positive control, 15 mg/kg
Procedure: as §1, with “experiments” for “experiment”, “experimental” for “drug administration”, “doses,” for “doses of ORG, a”, “groups,” for “group,”, “an imipramine” for “a diazepam”, “(Sigma,” for “(Jinyao Ltd. Co.,”
(§3) DD model in mice: Mice were kept under 24 h continuous dark conditions. The replacement of padding, addition of food and water, and other operations were undertaken in the condition that the intensity of red light was less than 1.0 lux. The period of this condition lasted for 28 days. In the last week, ORG was administered orally once a day for 1 week. The FST and TST were carried out 30 min after the last administration. Methods and data analysis were as described above.

[5] = tested on: CMS model mice; assay: TST in chronic unpredictable mild stress (CMS) model mice; format: in vivo, mouse; details: CMS mice, positive control, 15 mg/kg
Procedure: as §1, with “experiments” for “the experiment”, “experiment” for “drug administration”, “doses,” for “doses of ORG,”, “an imipramine” for “a diazepam”, “(Sigma,” for “(Jinyao Ltd. Co.,”
(§4) CMS model: The chronic mild stresses that Kunming mice were subjected to were reversal of circadian rhythm, continuous light, cold, damp bedding, tilt cages, food and water restriction, and restraint. […] The stress period lasted for 8 weeks. In the last week, ORG was administered orally once a day for 7 consecutive days. The behavioral test was carried out 30 min after the last administration. The parameter tested was immobility time in the FST and TST in the CMS model mice. The methods of FST and TST and data analysis were as described above.

[6] = tested on: Sprague-Dawley rats; assay: Forced swim test (FST) in rats; format: in vivo, rat; details: positive control, 15 mg/kg
[7] = tested on: Kunming mice; assay: Forced swim test (FST) in mice; details: FST mice
[8] = tested on: CMS model mice; assay: FST in chronic unpredictable mild stress (CMS) model mice; format: in vivo, mouse; details: CMS mice, positive control, 15 mg/kg
Procedure: as §1, with “experiments” for “the experiment”, “experiment” for “drug administration”, “doses,” for “doses of ORG,”, “an imipramine” for “a diazepam”, “(Sigma,” for “(Jinyao Ltd. Co.,”
as §4

[9] = tested on: SD model mice; assay: FST in sleep deprivation (SD) model mice; format: in vivo, mouse; details: SD model mice, 24 h and 5 h before FST, 7.5 mg/kg
Procedure: as §1, with “experiments” for “experiment”, “experiment” for “drug administration”, “doses,” for “doses of ORG,”, “an imipramine” for “a diazepam”, “(Sigma,” for “(Jinyao Ltd. Co.,”, “1061c1588)” for “106k1588)”
SD model: A modified method with multiple platforms in a water environment was used to establish the SD model in mice. Mice on the platforms were free to eat and drink. However, if it fell asleep, it fell into the water because of the loss of muscle tone. The fallen animal climbed onto the platform again via a tilt pole which propped up the platforms. After 72 h of sleep deprivation, ORG was administered orally 24 h and 5 h before the FST started. The immobility time of animals were recorded. Methods and data analysis were as described above.

[10] = tested on: Kunming mice; assay: Tail suspension test (TST) in mice; details: TST mice, positive control, 15 mg/kg
[11] = tested on: DD model mice; assay: FST in constant darkness (DD) model mice; format: in vivo, mouse; details: DD mice, positive control, 15 mg/kg
Procedure: as §1, with “experiments” for “experiment”, “experimental” for “drug administration”, “doses,” for “doses of ORG, a”, “groups,” for “group,”, “an imipramine” for “a diazepam”, “(Sigma,” for “(Jinyao Ltd. Co.,”
as §3

[12] = positive control, 15 mg/kg (Table 2)
[13] = i.p. 24 h and 5 h before test, 10 mg/kg (Table 5)

Q: CN1C(=O)CN=C(c2ccccc2)c2cc(Cl)ccc21 [Diazepam, diazepam, reference compound] was tested. Which “Number of entries into open arms (mean ± SEM)” value [1] did it give?
A: Its value is 4.80 ± 0.77.

Q: And the “Total time spent in the open arms (s) (mean ± SEM)” value [1]?
A: Its value is 46.90 ± 7.19 s.

Q: For CNCCC(Oc1ccc(C(F)(F)F)cc1)c1ccccc1 (stereo not drawn) [Fluoxetine, reference compound], which “Concentration of serum corticosterone (ng/ml) (mean ± SEM)” value (shortened to “Concentration … (mean ± SEM)”) ([2]; non-stress rats, 15 mg/kg) is on record?
A: The value was 167.20 ± 31.35 ng/mL.

Q: What about the “Concentration … (mean ± SEM)” value ([2]; non-stress rats, 30 mg/kg) of the same compound?
A: Its value is 178.14 ± 38.77 ng/mL.

Q: And the “Concentration … (mean ± SEM)” value ([2]; stress rats, 15 mg/kg)?
A: The value was 331.35 ± 46.43 ng/mL.

Q: What about the “Concentration … (mean ± SEM)” value ([2]; stress rats, 30 mg/kg) of the same compound?
A: The value was 324.58 ± 58.63 ng/mL.

Q: And the “Time spent in the right quadrant (s) (mean ± SEM)” value ([3]; i.p. 30 min before retrieval on day 8, 15 mg/kg)?
A: Its value is 29.44 ± 2.14 s.

Q: What about the “Time spent in the right quadrant (s) (mean ± SEM)” value ([3]; i.p. daily 30 min after training, retention test day 8, 15 mg/kg) of the same compound?
A: Its value is 32.61 ± 2.20 s.

Q: What does the source list for CN(C)CCCN1c2ccccc2CCc2ccccc21 [Imipramine, imipramine, reference compound]?
A: Immobility time (s) (mean ± SEM) [4]: 131.22 ± 10.61 s; Immobility time (s) (mean ± SEM) [5]: 131.22 ± 10.61 s; Immobility time (s) (mean ± SEM) [6]: 92.72 ± 7.09 s; Immobility time (s) (mean ± SEM) [7, 12]: 131.20 ± 3.91 s; Immobility time (s) (mean ± SEM) ([7]; positive control, 15 mg/kg (Table 4)): 96.38 ± 12.04 s; Immobility time (s) (mean ± SEM) ([7]; positive control, 15 mg/kg (Table 5)): 146.00 ± 6.46 s; Immobility time (s) (mean ± SEM) [8]: 166.00 ± 13.84 s; Immobility time (s) (mean ± SEM) [9]: 150.27 ± 13.17 s; Immobility time (s) (mean ± SEM) [10]: 105.65 ± 5.71 s; Immobility time (s) (mean ± SEM) [11]: 161.22 ± 13.08 s

Q: Cc1cc(O)cc(O)c1 [OR, orcinol] was tested. Which “Immobility time (s) (mean ± SEM)” value ([7]; i.p. 24 h and 5 h before test, 10 mg/kg (Table 4)) did it give?
A: The value was 82.40 ± 10.64 s.

Q: For CC(=O)Oc1cc(C)cc(OC(C)=O)c1 [OR-2Ac, 1,3-O-diacetylorcinol], which “Immobility time (s) (mean ± SEM)” value [7, 13] is on record?
A: The value was 170.10 ± 6.37 s.

Q: Which “Immobility time (s) (mean ± SEM)” value [7, 13] does the source give for Cc1cc(O)cc(OC2OC(COC3OC(CO)C(O)C(O)C3O)C(O)C(O)C2O)c1 [ORGG, orcinol-1-O-[β-D-glucopyranosyl-(1→6)]-β-D-glucopyranoside] here?
A: The value was 184.20 ± 11.29 s.

Q: Which results are given for COc1ccc(C(CN(C)C)C2(O)CCCCC2)cc1 (stereo not drawn) [Venlafaxine, venlafaxine, reference compound]?
A: Immobility time (s) (mean ± SEM) [6]: 100.80 ± 9.84 s; Immobility time (s) (mean ± SEM) [7, 12]: 134.28 ± 3.76 s; Immobility time (s) (mean ± SEM) [10]: 102.85 ± 9.34 s
